Data reported in PMC12540872 (Nature Communications, 2025).

Biological target: MMOH (hydroxylase of soluble methane monooxygenase, sMMO)
Assay: isothermal titration calorimetry
Format: binding, Methylosinus trichosporium
Details: enthalpically driven; surface site near K323 proposed

- Kd: 9.23 ± 1.3 µM
Structure (SMILES): O=C1OC2(c3cc(I)c(O)c(I)c3Oc3c2cc(I)c(O)c3I)c2c(Cl)c(Cl)c(Cl)c(Cl)c21 [RB, rose bengal]
